The test system of one data set is blood NAD^+ levels. Nature of the data set: NAD-brain pharmacokinetic study: whole blood NAD+ response. It is filed as in vivo, human. The protocol:
The NAD-brain study performs a parallel assessment of NAD replenishment therapy pharmacokinetics in the blood and brain of healthy human subjects and subjects with Parkinson's disease (PD). A total of 10 healthy individuals (5 men and 5 women) and 10 individuals with PD (5 men and 5 women) undergo repeated blood sampling and 31P-MRS brain scans during two 20-day periods, each of which starts with 8 days of daily intake of NR 600 mg×2, or NMN 600 mg×2. The two 20-day period is 14 days apart to allow for washout of the previous compound. Blood is analyzed for NR and NAD-metabolites using HPLC-MS. By this approach, we measured the simultaneous change in NAD-metabolism overtime in blood and brain and establish blood and brain pharmacokinetics for NAD replenishment therapy in humans.
NR (Niagen®, Chromadex) at a dose of 600 mg×2 daily). NMN (Restorin®, from Seragon Pharmaceutics, or MIB-626 from Metro International Biotech) at a dose of 600 mg×2 daily.
• At screening, participants are assessed for eligibility, inclusion/exclusion criteria, medical history and concomitant medication is recorded, and informed consent signed. • The NAD-brain study performs a parallel assessment of NAD replenishment therapy pharmacokinetics in the blood and brain of healthy human subjects and subjects with Parkinson's disease (PD). Healthy individuals and individuals with PD undergo repeated blood sampling and 31P-MRS brain scans during two 20-day periods, each of which starts with 8 days of daily intake of NR 600 mg×2, or NMN 600 mg×2 (Table 10). • For each 20-day period the testing (i.e., scanning and blood draw) frequency is shown in Table 10, below. The two 20-day periods are 14 days apart to allow for washout of the previous compound.
Blood is analyzed for NR and NAD-metabolites using HPLC-MS metabolomics. Snap-frozen whole blood is used for the analysis of NAD^+. Blood is drawn from the participant in EDTA tube (VACUETTE® TUBE 2 ml K2E K2EDTA). The EDTA tube is gently inverted at least 10 times without shaking; 8×200 μl of blood from the EDTA tube is aliquoted into 8×0.5 ml micro tubes; these are closed, and all the micro tubes are immerse simultaneously in liquid nitrogen within 2 min from when blood has started flowing into the EDTA tube; then transferred frozen to −80° C. freezer for storage; stored at −80C in freezer-compatible cardboard or plastic storage boxes; and shipped on dry ice.
This is a pharmacokinetic (PK) study where 6 healthy individuals (3 male and 3 female): • 1) Received NR 1200 mg daily (600 mg×2) for 8 days, followed by an additional 11 days follow up, while undergoing serial blood and brain NAD-measurement. • 2) Received NMN 1200 mg daily (600 mg×2) for 8 days, followed by an additional 11 days follow up, while undergoing serial blood and brain NAD-measurement.
The individuals were mixed, so that in stage-1 three individuals received NR and three individuals received NMN, then in stage-2 they switched (Cross-over design). There were almost three weeks (20 days) of washout between the last dose of the first compound, and before the first dose of the second compounds.

The next data set deals with brain NAD levels. Description: NAD-brain pharmacokinetic study: brain NAD by 31P-MRS. It is filed as in vivo, human. The conditions noted are these: 11 days after last dose, 1200 mg daily for 8 days. The protocol: • At screening, participants are assessed for eligibility, inclusion/exclusion criteria, medical history and concomitant medication is recorded, and informed consent signed. • The NAD-brain study performs a parallel assessment of NAD replenishment therapy pharmacokinetics in the blood and brain of healthy human subjects and subjects with Parkinson's disease (PD). Healthy individuals and individuals with PD undergo repeated blood sampling and 31P-MRS brain scans during two 20-day periods, each of which starts with 8 days of daily intake of NR 600 mg×2, or NMN 600 mg×2 (Table 10). • For each 20-day period the testing (i.e., scanning and blood draw) frequency is shown in Table 10, below. The two 20-day periods are 14 days apart to allow for washout of the previous compound. This is a pharmacokinetic (PK) study where 6 healthy individuals (3 male and 3 female): • 1) Received NR 1200 mg daily (600 mg×2) for 8 days, followed by an additional 11 days follow up, while undergoing serial blood and brain NAD-measurement. • 2) Received NMN 1200 mg daily (600 mg×2) for 8 days, followed by an additional 11 days follow up, while undergoing serial blood and brain NAD-measurement. The individuals were mixed, so that in stage-1 three individuals received NR and three individuals received NMN, then in stage-2 they switched (Cross-over design). There were almost three weeks (20 days) of washout between the last dose of the first compound, and before the first dose of the second compounds. In the brain, total NAD (NAD^++NADH) levels were measured by 31P-MRS as previously described^19. […] 19 Brakedal, B. et al. The […] study: A randomized phase I trial of nicotinamide riboside supplementation in Parkinson's disease. Cell Metab 34, 396-407.e6 (2022).

The subject of the next data set is adult humans. Conditions: dosages above 50-100 mg; cited from earlier work.

Each structure is given as a SMILES string.

Consider `NC(=O)c1ccc[n+]([C@@H]2O[C@H](COP(=O)([O-])O)[C@@H](O)[C@H]2O)c1` [NMN, Nicotinamide Mononucleotide], for which, in the data set on blood NAD^+ levels (1200 mg daily (600 mg×2) for 8 days, 6 healthy individuals), the “blood NAD^+ levels” value is recorded as “increased in all individuals”. For the same compound, the “day of maximal NAD levels in the blood” value in the data set with blood NAD^+ levels (1200 mg daily for 8 days, last dose morning of day 8) was 8 days. Besides, the “plateau of blood NAD^+ levels” value in the data set on blood NAD^+ levels (after 8 days of precursor intake, 1200 mg daily) is “did not plateau after 8 days”. Besides, the “NAD levels at day 19” value in the data set on brain NAD levels was “returned to baseline by day 19”.

In the case of `O=C(O)c1cccnc1` [nicotinic acid], the “flushing with NAD precursor supplementation” value with adult humans was “painful flushing”.

The values are drawn from patent US20250275995A1, “NICOTINAMIDE RIBOSIDE DOSAGE REGIMEN FOR TREATING PARKINSON'S DISEASE” (VESTLANDETS INNOVASJONSSELSKAP AS (VIS), priority 2022, published 2025).
